# Experiments:
# Format in all cases: cell-based
# [1] = system: Gram positive bacteria, including S. aureus, E. faecalis and B. subtilis; test: Antibacterial activity, statements not tied to one strain; settings: strain not singled out
# Experimental: (§1) The antibacterial activities of the compounds synthesized as described above were evaluated by assay against several strains of Gram positive bacteria from the American Type Culture Collection (ATCC), Staphylococcus aureus 29213, Staphylococcus aureus 43300, Enterococcus faecalis 29212, and Bacillus subtilis PY79. The minimum inhibition concentration (MIC, μg/mL) of each compound synthesized was tested against four bacterial strains. The inhibition of bacterial growth was monitored using a standard colorimeter at 600 nm using a serial dilution at concentrations 238, 119, 59.5, 29.8, 14.9, 7.44, 3.72, 1.86, 0.93, 0.46 μg/ml. Chloramphenicol was tested as a control, and inhibits bacteria growth (MIC90) at 7.44, 7.44, 4.0, 2.0 μg/mL, respectively, for the four bacterial strains listed in Table 1. In Table 1, the MICs are reported as the concentrations at 50% inhibition of bacteria growth, and N stands for no inhibition.
# Bacillus subtilis PY79 = test: Antibacterial growth inhibition assay (serial dilution, colorimeter at 600 nm), B. subtilis PY79; design: key to MIC, concentration at 50% inhibition of bacteria growth, B. subtilis PY79: N stands for no inhibition; settings: for MIC, concentration at 50% inhibition of bacteria growth, B. subtilis PY79: 50% growth inhibition, serial dilution 238-0.46 μg/ml
# Experimental: as §1
# [2] = system: Staphylococcus aureus 29213; test: Antibacterial growth inhibition assay (serial dilution, colorimeter at 600 nm), S. aureus 29213; design: key to MIC, concentration at 50% inhibition of bacteria growth, S. aureus 29213: N stands for no inhibition; settings: for MIC, concentration at 50% inhibition of bacteria growth, S. aureus 29213: 50% growth inhibition, methicillin susceptible strain, serial dilution 238-0.46 μg/ml
# Experimental: as §1
# [3] = system: Staphylococcus aureus 43300; test: Antibacterial growth inhibition assay (serial dilution, colorimeter at 600 nm), S. aureus 43300; design: key to MIC, concentration at 50% inhibition of bacteria growth, S. aureus 43300: N stands for no inhibition; settings: for MIC, concentration at 50% inhibition of bacteria growth, S. aureus 43300: 50% growth inhibition, methicillin resistant strain, serial dilution 238-0.46 μg/ml
# Experimental: as §1
# [4] = system: Enterococcus faecalis 29212; test: Antibacterial growth inhibition assay (serial dilution, colorimeter at 600 nm), E. faecalis 29212; settings: for MIC, concentration at 50% inhibition of bacteria growth, E. faecalis 29212: 50% growth inhibition, vancomycin susceptible strain, serial dilution 238-0.46 μg/ml
# Experimental: as §1
Structure (SMILES),"MIC90 (Bacillus subtilis PY79; Bacillus subtilis, B. subtilis PY79, read-out: MIC90 (control)) [µg/mL]","MIC90 ([2]; Staphylococcus aureus, S. aureus 29213, read-out: MIC90 (control)) [µg/mL]","MIC90 ([3]; Staphylococcus aureus, S. aureus 43300, read-out: MIC90 (control)) [µg/mL]","MIC90 ([4]; Enterococcus faecalis, E. faecalis 29212, read-out: MIC90 (control)) [µg/mL]","MIC, concentration at 50% inhibition of bacteria growth, B. subtilis PY79 (Bacillus subtilis PY79)","MIC, concentration at 50% inhibition of bacteria growth, S. aureus 29213 [2]","MIC, concentration at 50% inhibition of bacteria growth, S. aureus 43300 [3]","MIC, concentration at 50% inhibition of bacteria growth, E. faecalis 29212 [4] [µg/mL]",antibacterial activity in words [1],antibacterial activity in words ([2]; S. aureus 29213),antibacterial activity in words ([3]; S. aureus 43300)
"CCN1CC[C@@H](CN(Cc2ccccc2)Cc2ccc(Cl)c(Cl)c2)OC1=O (stereo in doubt) [Compound A11, 6-{[benzyl-(3,4-dichloro-benzyl)-amino]-methyl}-3-ethyl-[1,3]oxazinan-2-one]",,,,,,,,,good activity,,
"O=C(N[C@H](CO)[C@H](O)c1ccc([N+](=O)[O-])cc1)C(Cl)Cl [Chloramphenicol, reference compound]",2,7.44,7.44,4,,,,,,,
CCN1CC[C@@H](CN(Cc2ccccc2)Cc2ccc([N+](=O)[O-])cc2)OC1=O [Compound A1],,,,,N,N,N,45.0,,,
CCN1CC[C@@H](CN(Cc2ccccc2)Cc2cccc([N+](=O)[O-])c2)OC1=O [Compound A2],,,,,108 µg/mL,90.0 µg/mL,22.0 µg/mL,47.0,,,
CCN1CC[C@@H](CN(Cc2ccccc2)Cc2ccccc2[N+](=O)[O-])OC1=O [Compound A3],,,,,100 µg/mL,72.0 µg/mL,100 µg/mL,43.0,,,
CCN1CC[C@@H](CN(Cc2ccccc2)Cc2ccc(C#N)cc2)OC1=O [Compound A4],,,,,10.0 µg/mL,180 µg/mL,59.5 µg/mL,12.0,,,
CCN1CC[C@@H](CN(Cc2ccccc2)Cc2cccc(C#N)c2)OC1=O [Compound A5],,,,,238 µg/mL,238 µg/mL,N,45.0,,,
CCN1CC[C@@H](CN(Cc2ccccc2)Cc2ccccc2C#N)OC1=O [Compound A6],,,,,160 µg/mL,130 µg/mL,180 µg/mL,33.0,,,
CCN1CC[C@@H](CN(Cc2ccccc2)Cc2ccc(F)cc2)OC1=O [Compound A7],,,,,42.5 µg/mL,64.0 µg/mL,47.0 µg/mL,35.0,,,
CCN1CC[C@@H](CN(Cc2ccccc2)Cc2ccc(F)cc2F)OC1=O [Compound A8],,,,,38.0 µg/mL,45.0 µg/mL,50.5 µg/mL,59.5,,,
CCN1CC[C@@H](CN(Cc2ccccc2)Cc2c(F)cccc2F)OC1=O [Compound A9],,,,,77.0 µg/mL,47.0 µg/mL,70.0 µg/mL,59.5,,,
CCN1CC[C@@H](CN(Cc2ccccc2)Cc2cc(F)cc(F)c2)OC1=O [Compound A10],,,,,43.0 µg/mL,40.0 µg/mL,45.0 µg/mL,37.0,,,
CCN1CC[C@@H](CN(Cc2ccccc2)Cc2ccc3ccccc3c2)OC1=O [Compound A12],,,,,29.0 µg/mL,15.0 µg/mL,N,13.0,,promising activity,no activity
CCN1CC[C@@H](CN(Cc2ccccc2)Cc2cccc(OC)c2)OC1=O [Compound A16],,,,,95.0 µg/mL,90.0 µg/mL,90.0 µg/mL,80.5,,,

# Further lines, with some results ahead:
"MIC90 (Bacillus subtilis PY79; Bacillus subtilis, B. subtilis PY79, read-out: MIC90 (control)) [µg/mL]","MIC90 ([2]; Staphylococcus aureus, S. aureus 29213, read-out: MIC90 (control)) [µg/mL]","MIC90 ([3]; Staphylococcus aureus, S. aureus 43300, read-out: MIC90 (control)) [µg/mL]","MIC90 ([4]; Enterococcus faecalis, E. faecalis 29212, read-out: MIC90 (control)) [µg/mL]","MIC, concentration at 50% inhibition of bacteria growth, B. subtilis PY79 (Bacillus subtilis PY79)","MIC, concentration at 50% inhibition of bacteria growth, S. aureus 29213 [2]","MIC, concentration at 50% inhibition of bacteria growth, S. aureus 43300 [3]","MIC, concentration at 50% inhibition of bacteria growth, E. faecalis 29212 [4] [µg/mL]",Structure (SMILES),antibacterial activity in words [1],antibacterial activity in words ([2]; S. aureus 29213),antibacterial activity in words ([3]; S. aureus 43300)
,,,,98.0 µg/mL,81.0 µg/mL,N,119,CN1CC[C@@H](CN(Cc2ccccc2)Cc2ccc([N+](=O)[O-])cc2)OC1=O [Compound B1],,,
,,,,238 µg/mL,138 µg/mL,N,119,CN1CC[C@@H](CN(Cc2ccccc2)Cc2cccc([N+](=O)[O-])c2)OC1=O [Compound B2],,,
,,,,238 µg/mL,179 µg/mL,N,238,CN1CC[C@@H](CN(Cc2ccccc2)Cc2ccccc2[N+](=O)[O-])OC1=O [Compound B3],,,
,,,,238 µg/mL,200 µg/mL,N,238,CN1CC[C@@H](CN(Cc2ccccc2)Cc2ccc(C#N)cc2)OC1=O [Compound B4],,,
,,,,180 µg/mL,180 µg/mL,238 µg/mL,7.40,CN1CC[C@@H](CN(Cc2ccccc2)Cc2cccc(C#N)c2)OC1=O [Compound B5],,,
,,,,180 µg/mL,166 µg/mL,180 µg/mL,59.5,CN1CC[C@@H](CN(Cc2ccccc2)Cc2ccccc2C#N)OC1=O [Compound B6],,,
,,,,95.0 µg/mL,87.1 µg/mL,119 µg/mL,120,CN1CC[C@@H](CN(Cc2ccccc2)Cc2ccc(F)cc2)OC1=O [Compound B7],,,
,,,,55.0 µg/mL,50.0 µg/mL,72.0 µg/mL,59.5,CN1CC[C@@H](CN(Cc2ccccc2)Cc2ccc(F)cc2F)OC1=O [Compound B8],,,
